Experimental data published in patent publication US9532945B2, “Oral dosage forms including an antiplatelet agent and an enterically coated acid inhibitor” (KG ACQUISITION LLC, priority 2006, dated 2017).

What was measured:
[1] = Excipient compatibility study: physical appearance; assay type: physicochemical; parameters: key: T: Off white powder with pellets; V: Off white powder with white pellets; W: Off white powder with off white pellets; X: Off white powder without pellets; Y: Off white powder with pellets and shells; Z: Sticky off white powder with grey pellets; S: Off white powder with blue pellets; R: Off white powder with grey pellets; Q: Off white powder with brown pellets; P: Brownish sticky powder with gray pellets; Off white powder with sticking brown pellets; N: Brownish sticky powder with blue pellets; M: Slight yellow powder with grey pellets; Light brownish sticky powder with off white pellets; K: Slight yellow agglutinate; J: Sticky off white powder with off white pellets; I: Capsule shells with white pellets and off white powder; H: Capsule shells with yellowish pellets and off white powder; conditions: stored at 40° C./75% RH
Protocol: In addition to the excipients used in the commercial formulation, some commonly used excipients were also tested. […] Samples were stored also at 25° C./60% RH to be tested only if the stress sample failed. […] The development work explored the compatibility of both APIs together with each of the proposed excipients individually in different ratios depending on the function of the excipient at different temperature and humidity conditions. The selected excipients were mixed with the APIs in different ratios depending on the excipient functionality (Table 5). In addition, samples of pure APIs and excipients were prepared and provided as reference and control respectively.

[2] = at a pH greater than about 4; cited from earlier work

Structure (SMILES)	Physical Appearance ([1]; 1 week)	Physical Appearance ([1]; 2 weeks)	Physical Appearance ([1]; 4 weeks)	Physical Appearance ([1]; 6 weeks)	Physical Appearance ([1]; 8 weeks)	Physical Appearance ([1]; 12 weeks)	Physical Appearance ([1]; Initial)	solubility [2]
COC(=O)[C@H](c1ccccc1Cl)N1CCc2sccc2C1 [Clopidogrel Bisulfate]	X	X	X	X	X	X	X	
COC(=O)[C@H](c1ccccc1Cl)N1CCc2sccc2C1 [clopidogrel]								reduced solubility
